Test results taken from patent publication US20250313572A1, “MACROCYCLIC MCL-1 INHIBITORS AND METHODS OF USE” (AbbVie Inc., priority 2017, published 2025).
pKi: −log10 of the molar value. Read-outs that look alike come from different tables or passages of the source.

Assays:
GST-MCL-1 = GST-MCL-1 (Homo sapiens, UniProt Q07820); test: TR-FRET MCL-1 binding assay (competition with probe F-Bak); settings: for Ki: MCL-1 Binding Ki (nM, 10% HS), in the presence of 10% HS (human serum); for pKi: without HS, read-out: MCL-1 Binding Ki
Experimental: Tb-anti-GST antibody was purchased from Invitrogen (Catalog No. PV4216).
For the assay, an acoustic dispenser was used to prepare dilution series from 10 mM test compounds in 100% DMSO and directly transfer 160 nL into low volume 384-well assay plates. 8 μL of a protein/probe/antibody mix was then added to each well resulting in final concentrations listed below: • Test compound: 11 three-fold dilutions beginning at 25 μM
The samples were then mixed on a shaker for 1 minute and incubated for an additional 2 hours at room temperature. For each assay plate, a probe/antibody and protein/antibody/probe mixture were included as a negative and a positive control, respectively. Fluorescence was measured on the Envision (Perkin Elmer) using a 340/35 nm excitation filter and 520/525 (F-Bak) and 495/510 nm (Tb-labeled anti-his antibody) emission filters. […] The TR-FRET assay can be performed in the presence of varying concentrations of human serum (HS) or fetal bovine serum (FBS). Compounds were tested both without HS and in the presence of 10% HS.

[1] = test system: AMO-1 human multiple myeloma tumor cell line; test: AMO-1 cell viability assay (CellTiter-Glo, 24 hours); format: cell-based
Experimental: Each concentration was tested in duplicate at least 3 independent times. A luminescent signal proportional to the number of viable cells following 24 hours of compound treatment was determined using the CellTiter-Glo® Luminescent Cell Viability Assay according to the manufacturer's recommendations (Promega Corp., Madison, WI). The plates were read in a Perkin Elmer Envision using a Luminescence protocol. To generate dose response curves the data is normalized to percent viability by setting the averages of the staurosporine (10 μM) and DMSO only control wells to 0% and 100% viability respectively.

[2] = test system: NCI-H929 human multiple myeloma tumor cell line; test: NCI-H929 cell viability assay (CellTiter-Glo, 24 hours); format: cell-based
[3] = Homo sapiens, AMO1, 24 h, read-out: AMO-1 Viability IC50 (μM, 10% FBS), 10% FBS, 24 hours of compound treatment
[4] = Homo sapiens, NCI-H929, 24 h, read-out: H929 Viability IC50 (μM, 10% FBS), 10% FBS, 24 hours of compound treatment
[5] = read-out: AMO-1 Viability IC50 (μM, 10% FBS), 10% FBS, 24 hours of compound treatment
[6] = read-out: H929 Viability IC50 (μM, 10% FBS), 10% FBS, 24 hours of compound treatment

GST-MCL-1, sequence (Q07820 whole entry): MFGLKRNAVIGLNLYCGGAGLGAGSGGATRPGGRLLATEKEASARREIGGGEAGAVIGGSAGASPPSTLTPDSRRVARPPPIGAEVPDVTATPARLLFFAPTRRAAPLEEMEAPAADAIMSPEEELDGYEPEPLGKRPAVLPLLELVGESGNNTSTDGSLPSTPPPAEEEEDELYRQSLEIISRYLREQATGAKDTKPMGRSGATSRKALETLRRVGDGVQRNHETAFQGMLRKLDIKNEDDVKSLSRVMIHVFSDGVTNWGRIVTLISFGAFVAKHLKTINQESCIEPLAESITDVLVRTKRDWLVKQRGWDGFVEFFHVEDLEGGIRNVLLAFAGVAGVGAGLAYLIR

| Structure (SMILES) | Ki (GST-MCL-1) | pKi (GST-MCL-1) | IC50 [1, 3] | IC50 [2, 4] | IC50 [1, 5] | IC50 [2, 6] |
| --- | --- | --- | --- | --- | --- | --- |
| Cc1c(Cl)c2c(Cl)c(C)c1-c1c(-c3ccc(F)cc3)sc3ncnc(c13)O[C@@H](C(=O)O)Cc1cc(ccc1OCc1ccnc(-c3ccc(S(C)(=N)=O)cc3)n1)OC[C@@H](CN1CCN(C)CC1)O2 (stereo partly drawn) [Example 30, (7R,16R)-19,23-dichloro-1-(4-fluorophenyl)-10-({2-[4-(S-methanesulfonimidoyl)phenyl]pyrimidin-4-yl}methoxy)-20,22-dimethyl-16-[(4-methylpiperazin-1-yl)methyl]-7,8,15,16-tetrahydro-18,21-etheno-13,9-(metheno)-6,14,17-trioxa-2-thia-3,5-diazacyclononadeca[1,2,3-cd]indene-7-carboxylic Acid] | 0.252 nM | 10.48 | 0.00277 µM | 0.00356 µM |  |  |
| CO[C@H]1O[C@H](COc2cccc(-c3nccc(COc4ccc5cc4C[C@H](C(=O)O)Oc4ncnc6sc(-c7ccc(F)cc7)c(c46)-c4ccc(c(Cl)c4C)O[C@H](CN4CCN(C)CC4)CO5)n3)c2)[C@@H](OC)[C@H](OC)[C@@H]1OC [Example 7, methyl 6-O-{3-[4-({[(7R,16R,21S)-7-carboxy-19-chloro-1-(4-fluorophenyl)-20-methyl-16-[(4-methylpiperazin-1-yl)methyl]-7,8,15,16-tetrahydro-18,21-etheno-13,9-(metheno)-6,14,17-trioxa-2-thia-3,5-diazacyclononadeca[1,2,3-cd]inden-10-yl]oxy}methyl)pyrimidin-2-yl]phenyl}-2,3,4-tri-O-methyl-a-D-mannopyranoside] | 0.599 nM | 10.27 | 0.007 µM | 0.011 µM |  |  |
| COCCOCCOCCC1CCN(C[C@@H]2COc3ccc(OCc4ccnc(-c5ccccc5OC)n4)c(c3)C[C@H](C(=O)O)Oc3ncnc4sc(-c5ccc(F)cc5)c(c34)-c3ccc(c(Cl)c3C)O2)CC1 (atropisomer, axis not shown) [Example 21, (7R,16R,21S)-19-chloro-1-(4-fluorophenyl)-16-[(4-{2-[2-(2-methoxyethoxy)ethoxy]ethyl}piperidin-1-yl)methyl]-10-{[2-(2-methoxyphenyl)pyrimidin-4-yl]methoxy}-20-methyl-7,8,15,16-tetrahydro-18,21-etheno-13,9-(metheno)-6,14,17-trioxa-2-thia-3,5-diazacyclononadeca[1,2,3-cd]indene-7-carboxylic Acid] | 0.556 nM | 10.23 |  |  | 0.0143 µM | 0.0102 µM |
| CO[C@H]1O[C@H](COc2ccc(-c3nccc(COc4ccc5cc4C[C@H](C(=O)O)Oc4ncnc6sc(-c7ccc(F)cc7)c(c46)-c4ccc(c(Cl)c4C)O[C@H](CN4CCN(C)CC4)CO5)n3)cc2)[C@@H](O)[C@H](O)[C@@H]1O [Example 12, methyl 6-O-{4-[4-({[(7R,16R,21S)-7-carboxy-19-chloro-1-(4-fluorophenyl)-20-methyl-16-[(4-methylpiperazin-1-yl)methyl]-7,8,15,16-tetrahydro-18,21-etheno-13,9-(metheno)-6,14,17-trioxa-2-thia-3,5-diazacyclononadeca[1,2,3-cd]inden-10-yl]oxy}methyl)pyrimidin-2-yl]phenyl}-a-D-mannopyranoside] | 0.227 nM | 9.22 | 0.0187 µM | 0.0316 µM |  |  |
| Cc1c(Cl)c2c(Cl)c(C)c1-c1c(-c3ccc(F)cc3)sc3ncnc(c13)O[C@@H](C(=O)O)Cc1cc(ccc1OCc1ccnc([C@@H]3CN4CCC[C@H]4CO3)n1)OC[C@@H](CN1CCN(C)CC1)O2 [Example 150, (7R,16R)-19,23-dichloro-1-(4-fluorophenyl)-10-({2-[(3S,8aS)-hexahydro-1H-pyrrolo[2,1-c][1,4]oxazin-3-yl]pyrimidin-4-yl}methoxy)-20,22-dimethyl-16-[(4-methylpiperazin-1-yl)methyl]-7,8,15,16-tetrahydro-18,21-etheno-13,9-(metheno)-6,14,17-trioxa-2-thia-3,5-diazacyclononadeca[1,2,3-cd]indene-7-carboxylic Acid] | 0.267 nM | 10.37 | 0.00151 µM | 0.00253 µM |  |  |
| COCCOCCOCC1(F)CC=C(c2nccc(COc3ccc4cc3C[C@H](C(=O)O)Oc3ncnc5sc(-c6ccc(F)cc6)c(c35)-c3c(C)c(Cl)c(c(Cl)c3C)O[C@H](CN3CCN(C)CC3)CO4)n2)CC1 (single isomer, unassigned) [Example 86, (7R,16R)-19,23-dichloro-10-({2-[(4S*)-4-fluoro-4-{[2-(2-methoxyethoxy)ethoxy]methyl}cyclohex-1-en-1-yl]pyrimidin-4-yl}methoxy)-1-(4-fluorophenyl)-20,22-dimethyl-16-[(4-methylpiperazin-1-yl)methyl]-7,8,15,16-tetrahydro-18,21-etheno-13,9-(metheno)-6,14,17-trioxa-2-thia-3,5-diazacyclononadeca[1,2,3-cd]indene-7-carboxylic Acid] | 0.102 nM | 11.10 | 0.000105 µM | 0.000258 µM |  |  |
| COCCOCCOCCOc1ccc(-c2nccc(COc3ccc4cc3C[C@H](C(=O)O)Oc3ncnc5sc(-c6ccc(F)cc6)c(c35)-c3c(C)c(Cl)c(c(Cl)c3C)O[C@H](CN3CCN(C)CC3)CO4)n2)cn1 [Example 46, (7R,16R)-19,23-dichloro-1-(4-fluorophenyl)-10-{[2-(6-{2-[2-(2-methoxyethoxy)ethoxy]ethoxy}pyridin-3-yl)pyrimidin-4-yl]methoxy}-20,22-dimethyl-16-[(4-methylpiperazin-1-yl)methyl]-7,8,15,16-tetrahydro-18,21-etheno-13,9-(metheno)-6,14,17-trioxa-2-thia-3,5-diazacyclononadeca[1,2,3-cd]indene-7-carboxylic Acid] | 1.08 nM | 8.99 | 0.00027 µM | 0.000388 µM |  |  |
| COCCOCCOCCOc1ccc(-c2nccc(COc3ccc4cc3C[C@H](C(=O)O)Oc3ncnc5sc(C6CCCCC6)c(c35)-c3c(C)c(Cl)c(c(Cl)c3C)O[C@H](CN3CCN(C)CC3)CO4)n2)cc1 [Example 90, (7R,16R)-19,23-dichloro-1-cyclohexyl-10-{[2-(4-{2-[2-(2-methoxyethoxy)ethoxy]ethoxy}phenyl)pyrimidin-4-yl]methoxy}-20,22-dimethyl-16-[(4-methylpiperazin-1-yl)methyl]-7,8,15,16-tetrahydro-18,21-etheno-13,9-(metheno)-6,14,17-trioxa-2-thia-3,5-diazacyclononadeca[1,2,3-cd]indene-7-carboxylic Acid] | 3.41 nM | 10.36 | 0.000183 µM | 0.000787 µM |  |  |
| COCC(COC)Oc1nccc(COc2ccc3cc2C[C@H](C(=O)O)Oc2ncnc4sc(-c5ccc(F)cc5)c(c24)-c2c(C)c(Cl)c(c(Cl)c2C)O[C@H](CN2CCN(C)CC2)CO3)n1 [Example 141, (7R,16R)-19,23-dichloro-10-({2-[(1,3-dimethoxypropan-2-yl)oxy]pyrimidin-4-yl}methoxy)-1-(4-fluorophenyl)-20,22-dimethyl-16-[(4-methylpiperazin-1-yl)methyl]-7,8,15,16-tetrahydro-18,21-etheno-9,13-(metheno)-6,14,17-trioxa-2-thia-3,5-diazacyclononadeca[1,2,3-cd]indene-7-carboxylic Acid] | 0.363 nM | 11.10 | 0.000441 µM | 0.000503 µM |  |  |
| Cc1c(Cl)c2c(Cl)c(C)c1-c1c(-c3ccc(F)cc3)sc3ncnc(c13)O[C@@H](C(=O)O)Cc1cc(ccc1OCc1ccnc(C3=CCC(CC(=O)O)CC3)n1)OC[C@@H](CN1CCN(C)CC1)O2 (single isomer, unassigned) [Example 37, (7R,16R)-10-({2-[(4R*)-4-(carboxymethyl)cyclohex-1-en-1-yl]pyrimidin-4-yl}methoxy)-19,23-dichloro-1-(4-fluorophenyl)-20,22-dimethyl-16-[(4-methylpiperazin-1-yl)methyl]-7,8,15,16-tetrahydro-18,21-etheno-13,9-(metheno)-6,14,17-trioxa-2-thia-3,5-diazacyclononadeca[1,2,3-cd]indene-7-carboxylic Acid] | 0.124 nM | 11.05 |  |  | 0.0096 µM | 0.0167 µM |
| COCCOCCOCCOCCOC[C@@H]1CCCC[C@H]1c1nccc(COc2ccc3cc2C[C@H](C(=O)O)Oc2ncnc4sc(-c5ccc(F)cc5)c(c24)-c2c(C)c(Cl)c(c(Cl)c2C)O[C@H](CN2CCN(C)CC2)CO3)n1 (relative stereo) [Example 120, (7R,16R)-19,23-dichloro-1-(4-fluorophenyl)-20,22-dimethyl-16-[(4-methylpiperazin-1-yl)methyl]-10-({2-[(1R*,2R*)-2-(2,5,8,11,14-pentaoxapentadecan-1-yl)cyclohexyl]pyrimidin-4-yl}methoxy)-7,8,15,16-tetrahydro-18,21-etheno-13,9-(metheno)-6,14,17-trioxa-2-thia-3,5-diazacyclononadeca[1,2,3-cd]indene-7-carboxylic Acid] |  | 7.58 | 0.000231 µM | 0.000386 µM |  |  |
